This is an account of results in patent US20150025052A1, “Compositions and Methods for Inhibiting HSP90/HSP70 Machinery” (Georgia Regents Research Institute, Inc., priority 2013, published 2015).

Data set [1] relates to Hsp90 derived from transformed cells overexpressing HER-2 (BT474, N87, SKOV3 and SKBR3). The following applies: cited from earlier work.
The test system of data set [2] is MCF7 cells.
The next data set concerns LNCaP cells. The format is cell-based.
For the next data set, the system named is NCI 60-cell panel. Conditions: read-out: Growth Inhibition of 50% (GI50); cited from earlier work.
For data set [3] the following is noted: preclinical data; cited from earlier work.
In data set [4] the test system is Hsp70 (inducible form, Hsp70i). Briefly: Western blotting of Hsp70 in cancer cells. The format is cell-based. A general note: A western blot detects proteins with antibodies after separation by electrophoresis.
For data set [5], the system named is Hsc70 (constitutive form). The data set is described as follows: Western blotting of Hsc70 in cancer cells. The format is cell-based. Conditions: HeLa and MCF7 cells. The method, then: (§1) FIGS. 2A-2F are autoradiographs of composite images of Western immuno-staining blots. […] FIGS. 2D-E show the Hsp90 client proteins HER2, GR, PRB, CDK4, Chk1, Raf-A, Akt and ILK, and the chaperones Hsp70, 2;3, Hsc70, HOP, HDJ2 (Hsp40), p23, Hsp90α and Hsp90β in the presence of DMSO, 2.5 μM 17AAG or 50, 100 or 200 μM capsaicin in HeLa cells (FIG. 2D) or MCF7 cells (FIG. 2E), respectively. In all blots, 2.5 μM 17-AAG was used as a positive control for cellular degradation of several kinases and hormone receptor clients of Hsp90, Beta actin (β-actin) was used a loading control. FIG. 2F is an autoradiograph of a Western blot showing capsaicin altered Hsp70 multi-chaperone complexes in cells. LNCaP cells were treated with 200 μM capsaicin for 6 h and then lysed, and Hsp70 complexes were pulled down using an antibody against Hsp70 on Protein A-Sepharose beads. Western blotting was performed for Hsp70, Hsp40 (HDJ-2), and Hsp90β. Capsaicin reduced Hsp40 and Hsp90 binding to Hsp70. Mouse IgG was used as a control.
(§2) Cells were lysed with buffer A (10 mM Tris pH 8.0, 137 mM NaCl, 10% glycerol, 1% Nonident P-40) supplemented with protease inhibitor cocktail (Roche Applied Science catalog no. 11 836 170 001) on ice for 30 minutes, shaking every 5 minutes. Lysate was centrifuged at 16,000×g for 10 minutes. 10 μg of clarified lysates were run on SDS-PAGE (10% gel) and transferred to PVDF membrane. […]

A further data set concerns the target Hsp70 (Homo sapiens, UniProt P0DMV8). The data set is described as follows: Fluorescence emission assay with purified Hsp70. It is filed as binding. Conditions: Hsp70 15 μM, capsaicin 7.5 μM, 1 h room temperature, excitation 266 nm. Here is the method:
(§3) FIG. 5A is a histogram showing the ratio of Hsp70 mRNA relative to β-actin in the presence of DMSO, 100 μM or 200 μM capsaicin (Cap) after RT-PCR. FIG. 5B is a graph of fluorescence emission spectra for capsaicin, Hsp70, Hsp70 with capsaicin (Hsp70+C), Hsp90, Hsp90 with capsaicin (Hsp90+C), Hsp40 and Hsp40 with capsaicin (Hsp40+C), at wavelengths between 290 and 440 nm. All chaperones were tested at 15 μM and capsaicin at 7.5 μM. Proteins were incubated for 1 h at room temp in the presence or absence of capsaicin. An excitation wavelength of 266 nm was used.
(§4) To determine the effect of molecular chaperones on the fluorescence emission of capsaicin, all chaperones were tested at 15 μM and capsaicin at 7.5 μM concentrations. Proteins were incubated for 1 h at room temperature in the presence or absence of capsaicin. A 96-well black plate and a SAFIRE-TECAN plate reader were used. The excitation wavelength was 266 nm.

Another data set relates to Hsp40. Briefly: Fluorescence emission assay with Hsp40. The format is binding. Conditions: Hsp40 15 μM, capsaicin 7.5 μM, excitation 266 nm. The method, then:
as §3, §4

The test system of the next data set is LC3II and p62/SQSTM1. The data set is described as follows: Western blotting of autophagy markers. It is filed as cell-based.
The test system of data set [6] is MCF7 cells. The data set is described as follows: Microscopy (light, transmission electron) of capsaicin-treated MCF7 cells. It is filed as cell-based.
Data set [7] concerns cancer cells (LNCaP, MCF7, HepG2, HeLa). Briefly: Colony formation assay. The format is cell-based. Conditions: 200 μM capsaicin for 24 h, 15 days growth. The text has this:
FIG. 3A is a line graph of absorbance at 495 nm (arbitrary units) versus Capsaicin dose (μM) of Hs578Bst and MCF7 cells treated with the indicated dose of capsaicin. FIG. 3B is a line graph of absorbance at 495 nm versus time of capsaicin treatment (hours) of Hs578Bst cells and MCF7 cells. Stippled line represents Hs578Bst cells and solid line represents MCF7 cells. FIGS. 3C-F are histograms showing colony number versus treatment with DMSO or Capsaicin in the following cell lines: LNCaP (FIG. 3C), MCF7 (FIG. 3D), HepG2 (FIG. 3E), and HeLa (FIG. 3F). Cells were treated with 200 μM capsaicin for 24 h. Adherent cells were then collected and plated (1000 cells per 10 cm dish) for further incubation. The standard deviation of three dishes is shown as error bars. The experiment was reproduced twice. FIG. 3G is an autoradiograph of cell lysates HeLa, MCF7 and LNCaP treated with 200 μM capsaicin for 24 h; cell lysates were made and Western blotted for p62/SQSTM1 and LC3II. β-actin was used as a loading control. LNCaP cells were treated with 50, 100 and 200 μM capsaicin for 24 h. this experiment was reproduced twice. […] DMSO was used as a control.
Cells were grown in 6-well tissue culture plates to 60% confluence and treated with 200 μM capsaicin or DMSO control for 24 h. […] Cells were fixed with 6% Glutaraldehyde and 0.5% Crystal Violet, and colonies that contained 50 cells were counted. […]

For data set [8], the target named is T1, Hsp70 multi-chaperone complexes (Homo sapiens, UniProt P0DMV8).
T1 construct: endogenous in cells; host or cells: LNCaP
T1 sequence (P0DMV8 2-641 limits assumed, one chain of several): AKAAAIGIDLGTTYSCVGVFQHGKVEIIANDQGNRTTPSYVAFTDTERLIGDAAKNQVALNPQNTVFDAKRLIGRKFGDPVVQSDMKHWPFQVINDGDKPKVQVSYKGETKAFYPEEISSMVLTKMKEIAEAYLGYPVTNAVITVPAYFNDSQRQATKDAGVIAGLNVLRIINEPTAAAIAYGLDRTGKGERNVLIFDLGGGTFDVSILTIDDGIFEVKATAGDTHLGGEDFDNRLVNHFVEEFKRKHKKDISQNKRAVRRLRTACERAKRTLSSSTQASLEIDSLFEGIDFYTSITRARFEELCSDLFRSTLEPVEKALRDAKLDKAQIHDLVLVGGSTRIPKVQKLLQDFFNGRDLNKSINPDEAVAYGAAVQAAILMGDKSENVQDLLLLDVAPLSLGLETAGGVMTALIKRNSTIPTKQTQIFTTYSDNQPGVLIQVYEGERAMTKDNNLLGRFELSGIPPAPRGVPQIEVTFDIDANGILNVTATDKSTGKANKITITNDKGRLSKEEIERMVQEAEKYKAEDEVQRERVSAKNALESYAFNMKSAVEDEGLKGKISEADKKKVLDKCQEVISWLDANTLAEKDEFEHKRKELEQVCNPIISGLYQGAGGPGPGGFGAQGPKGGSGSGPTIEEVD
Briefly: Hsp70 complex pull-down and Western blotting in LNCaP cells. It is filed as cell-based. The following applies: 200 μM capsaicin, 6 h. The method, then: as §1
FIG. 12 is an autoradiograph of LNCaP cells treated with 200 μM capsaicin for 6 h and then lysed and Western blotted for Hsp70, Hsp40 (HDJ-2), and Hsp90β. Capsaicin reduced Hsp40 and Hsp90 binding to Hsp70. Mouse IgG was used as a control.

Data set [9] relates to Hsp90 client proteins (Her2, CDK4, ChK1, Raf-A, Akt, ILK, GR, PR, AR). Briefly: Western blotting of Hsp90 client proteins in cancer cells. The format is cell-based. Conditions: 50, 100, 200 μM capsaicin; HeLa, MCF7, LNCaP cells. The method, then: as §1, §2
For data set [10] the following is noted: purified capsaicin; cited from earlier work.
The conditions of data set [11]: in vivo; cited from earlier work.
For another data set, the system named is Hsp70 mRNA. Briefly: Gene expression assay (RT-PCR) of Hsp70 mRNA in MCF7 cells. The format is cell-based.
The test system of another data set is Hsp90. Briefly: Fluorescence emission assay with Hsp90. Conditions: Hsp90 15 μM, capsaicin 7.5 μM, excitation 266 nm. The format is binding. Here is the method:
as §3, §4

Data set [12] deals with Hsp90/Hsp70 chaperoning machinery (rabbit reticulocyte lysate) with progesterone receptor. Briefly: Progesterone receptor (PR) reconstitution assay: recovery of hormone binding activity of PR. The format is biochemical.
Text: To identify small molecule inhibitors of molecular chaperones, a high-throughput functional screen was developed based on the isoform A of progesterone receptor (PRA), a well-established physiological client of Hsp90, and using rabbit reticulocyte lysate (RRL) as a source of molecular chaperones. This comprehensive functional assay measured the recovery of hormone binding activity of PRA after mild heat treatment. Purified PR was adsorbed onto PR22 antibody bound to protein A that was absorbed on 96 well plates. 100 μl of RRL lysate and ATP regeneration system was added to each well. After incubation for 30 min at 30° C., 0.1 μM [3H]-progesterone (American Radiolabeled Chemicals, Inc #ART 0063) was added. Plates were incubated on ice for 2 h at 4° C. Complexes were then washed three times with 200 μl of reaction buffer (20 mM Tris/HCl, pH 7.5, 5 mM MgCl2, 2 mM DTT, 0.01% NP-40, 50 mM KCl and 5 mM ATP) and assessed for bound progesterone by liquid scintillation using PerkinElmer Microbeta plate reader.
PR complexes were reconstituted on a 96-well plate; the first eight samples contain the following internal controls: 1. Protein A alone, 2. Protein A+PR22, 3. Protein A+PR22+PR, 4. Protein A+PR22+PR+RRL, 5. Protein A+PR22+PR+RRL+17-AAG (20 μM), 6. Protein A+PR22+PR+RRL+Myrecetin (20 μM), 7. Protein A+PR22+PR+RRL+geldanamycin (20 μM), 8. Protein A+PR22+PR+RRL+gedunin (20 μM). […]
For data set [13] the following is noted: 5 mg/kg by gavage, three days per week for 2-4 weeks; cited from earlier work.
Data set [14] concerns Hsp90α, Hsp90β, Hsp40, p23 and Hop. The data set is described as follows: Western blotting of molecular chaperones in cancer cells. Conditions: 50, 100, 200 μM capsaicin. The format is cell-based. The method, then:
as §1, §2

For data set [15], the system named is HCT 116 colon cancer cells. Conditions: cited from earlier work.

Hsp70, sequence (P0DMV8 2-641 limits assumed): as the sequence (P0DMV8 2-641 limits assumed, one chain of several) above

As to `C=CCNC1=C2C[C@@H](C)C[C@H](OC)[C@H](O)[C@@H](C)/C=C(\C)[C@H](OC(N)=O)[C@@H](OC)/C=C\C=C(/C)C(=O)NC(=CC1=O)C2=O` [17-AAG, 17-allylamino-17-demethoxygeldanamycin], the IC50 in data set [1] (Hsp90 from HER-2 overexpressing cells or BT474 breast carcinoma cells) was 5 to 6 nM. Also, in [1] (relative to non-tumor cells), the “higher affinity for Hsp90 derived from transformed cells” value is “more than 100 ×”. In addition, the “cytotoxicity (cell survival)” value with MCF7 cells [2] is on record as “minimal cytotoxicity”. Also, in the data set on LNCaP cells, the “cell killing (relative survival)” value is listed as “very little effect or no effect”. The GI50 in the data set with NCI 60-cell panel was 120 nM.
In the case of `CO[C@H]1/C=C\C=C(/C)C(=O)NC2=CC(=O)C(NCCN(C)C)=C(C[C@@H](C)C[C@H](OC)[C@H](O)[C@@H](C)/C=C(\C)[C@@H]1OC(N)=O)C2=O` [17-DMAG, 17-Dimethylaminoethylamino-17-demethoxygeldanamycin], the GI50 in the data set with NCI 60-cell panel was 51 nM.
For `CC(C)c1cc(-c2n[nH]c(=O)n2-c2ccc3c(ccn3C)c2)c(O)cc1O` [Ganetespib], in data set [3], the “cardiac or liver toxicity” value was “no evidence of cardiac or liver toxicity”.
In the case of `COc1cc(CNC(=O)CCCC/C=C/C(C)C)ccc1O` [capsaicin, 8-Methyl-N-vanillyl-trans-6-nonenamide], the “level of Hsp70” value in data set [4] (HeLa and MCF7 cells) is “reduced the level of Hsp70”. The “degradation of Hsp70” value in [4] (HeLa, LNCaP, MCF7, Hs578T and MDA-MB-231, 24 h) is “reproducibly caused degradation”. Besides, in data set [4] (LNCaP cells, 200 μM capsaicin, 6 h (FIG. 12)), the “level of Hsp70 after 6 h of treatment” value is recorded as “not significantly down”. Besides, the “stabilization of Hsp70 protein by autophagy inhibitor 3MA” value in [4] (capsaicin 200 μM (alone or with 17-AAG) plus 3MA 5 mM, 6 h) is recorded as “almost fully stabilizes”. Further, the “rescue of Hsp70 protein by proteasome inhibitor MG132” value in [4] (capsaicin 200 μM plus MG132 20 μM, 6 h) is reported as “does not rescue”. The Hsp70 protein level entry in data set [4] (capsaicin 200 μM, 17-AAG 200 nM (FIG. 7C)) is listed as “decreased”. Besides, in data set [5], the “level of Hsc70” value was “did not change”. Moreover, the “capsaicin fluorescence emission in presence of Hsp70” value at Hsp70 is reported as “completely quenched”. In the data set on Hsp40, the “capsaicin fluorescence emission in presence of Hsp40” value is “may not significantly change”. In the data set with MCF7 cells [2], the “cell death of MCF7 cancer cells” value is listed as “caused cell death” and the “cytotoxicity (cell survival)” value is “minimal cytotoxicity”. Moreover, in the data set with LC3II and p62/SQSTM1 (HeLa cells, 200 μM capsaicin 24 h), the LC3II modification entry is “no LC3II modification”. For the same molecule, the LC3B modification result in the data set with LC3II and p62/SQSTM1 (LNCaP cells, 50, 100, 200 μM capsaicin 24 h) was “concentration-dependent induction”. Besides, in the data set on LC3II and p62/SQSTM1 (MCF7 and LNCaP cells, 200 μM capsaicin 24 h), the LC3II levels result was “significantly increased”. In addition, the p62/SQSTM1 protein level result in the data set on LC3II and p62/SQSTM1 (capsaicin treatment, Western blot) was “accumulation”. In addition, the “cell killing (relative survival)” value with LNCaP cells is on record as “very little effect or no effect”. Also, the mitophagy entry with MCF7 cells [6] is “induced mitophagy”. Also, in [7], the “ability of cancer cells to form colonies” value is given as “efficiently reduces”. In data set [8], the “Hsp40 and Hsp90 binding to Hsp70” value was “reduced”. The “cellular degradation of Hsp90 client proteins” value in data set [9] is “caused cellular degradation”. For the same molecule, in data set [10], the “solubility in alcohol, fats and oils” value was “freely soluble”; the “solubility in cold water” value is on record as “insoluble”. In addition, the pharmacokinetic half-life result in data set [11] is recorded as “approximately 24 hours”. Also, in the data set with Hsp70 mRNA (100 or 200 μM capsaicin, 24 h (FIG. 5A)), the “level of Hsp70 mRNA” value is reported as “No change”. The “level of Hsp70 mRNA” value in the data set with Hsp70 mRNA (capsaicin 200 μM, 17-AAG 200 nM (FIG. 7A)) was “slightly increased”. In addition, the “capsaicin fluorescence emission in presence of Hsp90” value in the data set on Hsp90 is listed as “may not significantly change”. Besides, the “blocking the hormone-binding activity of PR” value in [12] (rescreened in triplicates at 20 μM final concentration) is recorded as “about 40%”. The “modulation of the Hsp90 chaperoning activity” value in data set [12] (screen of NIH Clinical Collection library (FIG. 1)) was “efficient and reproducible modulation”. In addition, the toxicity symptoms entry in data set [13] is “No toxicity symptoms were observed”. Further, in [14], the “expression level of molecular chaperones Hsp90α, Hsp90β, Hsp40, p23 and Hop” value is “did not affect”.
`COc1cc(CNC(=O)CCCCCCC(C)C)ccc1O` [dihydrocapsaicin]: the mitoautophagy result in data set [15] is given as “induces mitoautophagy”.

A word on the IC50: it is the point on the concentration scale where inhibition reaches its midpoint. A word on the GI50: it is the concentration at which growth is held to half of that of the control.
